According to paper PMC7710018, “Restoration of motor learning in a mouse model of Rett syndrome following long-term treatment with a novel small-molecule activator of TrkB” (Disease Models & Mechanisms, 2020):
Read-outs that look alike come from different tables or passages of the source.

How the values were obtained:
TrkB = assay: Shc adaptor protein recruitment to TrkB in HCEMs (IP/western blot); type: cell-based, human; settings: 1 h, compounds 1000 nM, BDNF 0.7 nM
Description: Fig. 2. […] Scale bar: 10 μm. […] Scale bar: 10 μm.

[1] = Brain:plasma partitioning (LC-MS/MS); type: in vivo, mouse; settings: mice; for concentration at 1 h / concentration at 3 h / Kp at 1 h / Kp at 3 h / plasma levels: 50 mg/kg i.p.; for Kp at 1 h / Kp at 3 h: brain/plasma, read-out: brain-to-plasma ratio; for concentration at 1 h / Kp at 1 h / plasma levels: 1 h; for plasma levels: in nM (unit assumed)
Description: Brain and plasma concentrations of LM22A-4, PTX-BD4-3 and atenolol were determined by LC-MS/MS by Absorption Systems (Exton, PA, USA). Male C57BL/6 were dosed intraperitoneally one time with LM22A-4 or PTX-BD4-3 suspended in water at 50 mg/kg (10 ml/kg). Mice were sacrificed at 1 h or 3 h post dose (n=3-4 mice/time point), and brain and plasma samples were collected.
Figure S1. Brain and plasma levels, and brain to plasma ratios for […]
PTX-BD4-3 following IP administration in Wt mice. Brain and plasma levels were determined by LC-MS/MS and used to calculate the brain:plasma ratios at 1 and 3 hours after IP administration of 50 mg/kg LM22A-4 (black), or PTX- […]
in mice (n=11-12 mice/time point; data shown are mean + s.e.m.)
*p<0.05 compared to LM22A-4 at same time point; one-tailed Student’s t-test. […]

3T3-TrkB cells = assay: NIH-3T3 cell survival (ViaLight); type: cell-based, mouse; settings: 72-96 h
Description: Fig. 2. PTX-BD4-3 promotes cell survival preferentially through TrkB. (A-D) Neurotrophin receptor-expressing NIH-3T3 cells were incubated in culture medium (CM) alone or in medium plus either the indicated neurotrophins (BDNF, NGF, NT-3) or PTX-BD4-3 or its parent compound LM22A-4 for 72-96 h, after which survival was measured using the ViaLight assay. […] Scale bar: 10 μm. (B) Survival dose-response curves for PTX-BD4-3 and LM22A-4 in 3T3-TrkB cells. ^§P≤0.001 compared to CM alone. (C) Representative images of 3T3-TrkA, 3T3-TrkC and 3T3-p75 cells grown in the presence of CM alone, CM+neurotrophin or CM+PTX-BD4-3. Scale bar: 10 μm. NGF, NT-3 and BDNF served as positive controls for 3T3-TrkA, 3T3-TrkC and 3T3-p75 cells, respectively. (D) PTX-BD4-3 (1000 nM) had no effect on survival of 3T3-TrkA, 3T3-TrkC or 3T3-p75 cells compared to medium alone. *P≤0.05, ***P≤0.001 compared to CM alone. For each determination in B and D, n=10-32 wells derived from four to five independent experiments. Statistical significance was determined by one-way ANOVA with Dunnett's post hoc multiple comparison test. (E,F) […] protein was extracted from human cementoblast-like cell (HCEM) cultures treated with either culture medium alone, BDNF, LM22A-4 or PTX-BD4-3, immunoprecipitated with anti-TrkB antibody and then probed sequentially on western blots with anti-Shc and anti-TrkB antibody. The ratio of Shc to TrkB in treated cultures was normalized and compared to control (CM alone) using Kruskal-Wallis ANOVA followed by Dunn's multiple comparisons test (*P≤0.05, ^§P≤0.001). n=13 independent experiments, and each protein sample was run on duplicate western blots and the normalized values averaged. RLUs, relative light units.
Mouse NIH-3T3 cells expressing TrkA (NIH-3T3-TrkA) were provided by Dr William Mobley (University of California at San Diego, San Diego, CA, USA), and NIH-3T3 cells expressing TrkB (NIH-3T3-TrkB) or TrkC (NIH-3T3-TrkC) were provided by Dr David Kaplan (University of Toronto, Toronto, ON, Canada). Cells were propagated in Dulbecco's modified Eagle medium (DMEM) supplemented with 10% fetal bovine serum (FBS; Invitrogen) and 200-400 µg/ml Geneticin. Cells were seeded into 24-well plates (30,000 cells/well) and cultured in medium consisting of 50% PBS and 50% DMEM without supplements. Following exposure to BDNF (20 ng/ml, 0.7 nM) or 10-1000 nM LM22A-4 or PTX-BD4-3 for 72-96 h, cells were suspended in 50 µl lysis buffer, transferred to white, opaque 96-well culture plates and survival was measured using the ViaLight Assay (Lonza Group, Rockland, ME, USA).

[2] = Metabolic stability (Cerep); type: in vitro ADME, human; settings: 10 µM, 5 time points
Description: To evaluate the relative binding specificity of LM22A-4 ([Massa et al., 2010]) and PTX-BD4-3, binding to a broad range of 55 pharmacologically relevant receptors, including numerous neurotransmitter and G-protein coupled receptors was assessed using standard radioligand competition binding assays (ExpressSProfile) performed by Cerep, Inc. (Seattle, WA, USA). In addition, ADME-Tox analysis was performed by Cerep, Inc. All experimental conditions are described on the Cerep website (www.cerep.fr).
Aqueous Human CYP inhibition (10µM) AMES hERG solubility hepatocyte DNA testing
(µM) metabolic mutagenesis
PTX‐BD4‐3 200 >60 negative negative negative
Table S2. Solubility, metabolism and toxicity screens for LM22A-4 […]
and PTX-BD4-3. […]
(also on this page, place not known: Disease Models & Mechanisms: doi:10.1242/dmm.044685: Supplementary information Disease Models & Mechanisms • Supplementary information)

[3] = male, C57BL/6, mouse, brain, ip, read-out: brain levels
[4] = male, C57BL/6, mouse, plasma, ip, read-out: plasma level

Compound | Shc recruitment to TrkB (ratio of Shc to TrkB) (TrkB) | concentration at 1 h [1, 3] [µM] | concentration at 3 h [1, 3] [µM] | Kp at 1 h ([1]; male, C57BL/6, mouse, ip) | Kp at 3 h ([1]; male, C57BL/6, mouse, ip) | concentration at 3 h [1, 4] [µM] | plasma levels [1] | survival of 3T3-TrkB cells (3T3-TrkB cells; 1000 nM, representative images) | Human hepatocyte metabolic stability [2] [min] | half-life ([1]; male, C57BL/6, mouse, brain and plasma, ip, 50 mg/kg, systemic (i.p.) administration) [h] | survival of 3T3-TrkB cells (3T3-TrkB cells; serum-free medium, ViaLight, compounds 10-1000 nM dose-response, BDNF 20 ng/ml)
O=C(NCCO)c1cc(C(=O)NCCO)cc(C(=O)NCCO)c1 [LM22A-4, N,N′,N′′-tris(2-hydroxyethyl)-1,3,5-benzenetricarboxamide, reference compound] | promoted Shc recruitment to TrkB | 0.2 | 0.0532 | 0.0268 | 0.133 | 2350 | 9193.46 | support the survival | > 60 |  | 
COCCN(C)C(=O)c1cc(C(=O)N(C)CCOC)cc(C(=O)N(C)CCOC)c1 [PTX-BD4-3, benzene-1,3,5-tricarboxylic acid tris-[(2-methoxy-ethyl)-methyl-amide]] | promoted Shc recruitment to TrkB | 0.227 | 0.0361 | 0.0329 | 0.271 | 361 | 10011.16 | support the survival | > 60 | < 3 | promoted survival
